For 13 compounds, IC50 results are on record in BindingDB's records for doi:10.1074/jbc.M501100200 (University of Texas Southwestern Medical Center, 2005).

Common to all, as to experiment: DHODH Inhibition Assay
Test [1] has as its target T1, Dihydroorotate dehydrogenase (quinone), mitochondrial (Plasmodium falciparum, UniProt Q54A96).
T1 sequence (Q54A96 whole entry): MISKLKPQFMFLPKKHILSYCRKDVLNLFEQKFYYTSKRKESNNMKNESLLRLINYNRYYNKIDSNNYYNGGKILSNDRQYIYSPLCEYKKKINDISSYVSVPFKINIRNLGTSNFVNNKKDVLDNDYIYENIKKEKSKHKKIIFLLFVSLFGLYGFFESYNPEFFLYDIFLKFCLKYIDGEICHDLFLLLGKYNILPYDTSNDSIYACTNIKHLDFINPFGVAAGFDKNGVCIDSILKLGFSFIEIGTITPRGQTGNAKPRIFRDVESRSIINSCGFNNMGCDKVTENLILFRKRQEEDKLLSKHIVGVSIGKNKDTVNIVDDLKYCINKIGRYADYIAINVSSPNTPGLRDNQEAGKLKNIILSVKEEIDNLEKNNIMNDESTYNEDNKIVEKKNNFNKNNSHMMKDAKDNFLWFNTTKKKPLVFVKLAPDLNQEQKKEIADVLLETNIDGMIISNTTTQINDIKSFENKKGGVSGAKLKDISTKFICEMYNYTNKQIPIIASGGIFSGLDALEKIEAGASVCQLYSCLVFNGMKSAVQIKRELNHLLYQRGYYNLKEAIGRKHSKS
As to conditions: pH 8; 22 °C. How it is done:
(§1) The assays were carried out by using a colorimetric DCIP method, which uses the colorimetric reagent 2, 6-dichlorophenolindophenol as the final electron acceptor. DCIP reduction is stoichiometrically equivalent to oxidation of dihydroorotate. Changes in absorbance were quantified on a plate reader and data were analyzed to measure the reduction of DCIP as a decrease in absorbance at 600 nm. For the determination of the IC50 values (concentration of inhibitor required for 50% inhibition) different inhibitor concentrations were applied.

The target of test [2] is T2, Dihydroorotate dehydrogenase (quinone), mitochondrial [30-395] (Homo sapiens, UniProt Q02127).
T2 construct: 30-395
T2 sequence (Q02127 30-395): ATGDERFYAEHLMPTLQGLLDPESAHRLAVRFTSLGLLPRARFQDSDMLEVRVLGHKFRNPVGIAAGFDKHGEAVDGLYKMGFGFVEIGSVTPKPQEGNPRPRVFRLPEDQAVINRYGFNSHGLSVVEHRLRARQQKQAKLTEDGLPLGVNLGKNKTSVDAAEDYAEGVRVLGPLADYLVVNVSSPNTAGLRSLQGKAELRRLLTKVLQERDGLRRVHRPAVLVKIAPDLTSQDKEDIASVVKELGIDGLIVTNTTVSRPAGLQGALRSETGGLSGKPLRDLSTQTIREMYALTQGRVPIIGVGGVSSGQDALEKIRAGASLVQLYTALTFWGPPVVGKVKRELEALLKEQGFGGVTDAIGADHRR
The procedure: as §1

For test [3], the target named is Dihydroorotate dehydrogenase (quinone), mitochondrial [H185A] (Plasmodium falciparum, UniProt Q54A96, H185A). How it is done: as §1
Chain of Dihydroorotate dehydrogenase (quinone), mitochondrial [H185A] (Q54A96 whole entry H185A): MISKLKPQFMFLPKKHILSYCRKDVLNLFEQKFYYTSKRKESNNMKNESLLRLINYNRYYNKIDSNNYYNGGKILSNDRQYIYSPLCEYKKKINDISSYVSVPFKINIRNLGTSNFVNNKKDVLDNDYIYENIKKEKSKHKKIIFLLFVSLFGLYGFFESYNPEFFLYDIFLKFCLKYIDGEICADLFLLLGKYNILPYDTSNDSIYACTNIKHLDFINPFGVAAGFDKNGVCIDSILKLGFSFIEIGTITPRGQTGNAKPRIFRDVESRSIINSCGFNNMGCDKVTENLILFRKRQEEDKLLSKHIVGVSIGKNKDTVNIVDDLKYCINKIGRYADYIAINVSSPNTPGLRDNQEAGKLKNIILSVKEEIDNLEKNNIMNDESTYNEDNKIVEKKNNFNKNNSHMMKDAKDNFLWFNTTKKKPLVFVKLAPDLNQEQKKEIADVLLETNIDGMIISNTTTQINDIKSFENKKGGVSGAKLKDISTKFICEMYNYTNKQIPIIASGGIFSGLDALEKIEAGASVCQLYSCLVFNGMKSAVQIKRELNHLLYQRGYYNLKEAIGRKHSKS
The target in test [4] is Dihydroorotate dehydrogenase (quinone), mitochondrial [R265A] (Plasmodium falciparum, UniProt Q54A96, R265A). How it is done: as §1
Chain of Dihydroorotate dehydrogenase (quinone), mitochondrial [R265A] (Q54A96 whole entry R265A): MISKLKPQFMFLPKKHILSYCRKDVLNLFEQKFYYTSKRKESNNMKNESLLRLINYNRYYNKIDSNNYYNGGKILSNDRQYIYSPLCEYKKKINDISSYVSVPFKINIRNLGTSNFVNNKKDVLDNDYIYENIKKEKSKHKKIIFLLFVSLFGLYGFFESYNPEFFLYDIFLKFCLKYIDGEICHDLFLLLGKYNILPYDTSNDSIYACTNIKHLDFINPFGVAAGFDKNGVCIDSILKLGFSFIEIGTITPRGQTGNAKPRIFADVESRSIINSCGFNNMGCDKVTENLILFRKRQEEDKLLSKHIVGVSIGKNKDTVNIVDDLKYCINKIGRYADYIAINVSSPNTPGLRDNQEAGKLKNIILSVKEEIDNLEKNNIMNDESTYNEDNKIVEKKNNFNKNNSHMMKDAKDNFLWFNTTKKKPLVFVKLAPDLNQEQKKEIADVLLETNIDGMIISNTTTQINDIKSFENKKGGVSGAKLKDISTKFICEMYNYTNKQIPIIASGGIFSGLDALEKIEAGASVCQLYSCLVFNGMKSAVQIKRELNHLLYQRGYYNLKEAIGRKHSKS

As for `O=C(Nc1ccccc1C(F)(F)F)Nc1cccc2ccccc12` [1-naphthalen-1-yl-3-[2-(trifluoromethyl)phenyl]urea], the IC50 (usually the concentration that inhibits the measured activity by half) in test [1] is 0.4 µM; in test [2] it was > 1000 µM; in test [3], > 200 µM; in test [4], 0.34 µM.

On to `Cc1c(C(=O)Nc2cccc(C(F)(F)F)c2)cccc1[N+](=O)[O-]` [2-methyl-3-nitro-N-[3-(trifluoromethyl)phenyl]benzamide], for which the IC50 in test [1] came to 0.08 µM; in test [2], 150 µM; in test [3], 120 µM; in test [4], 0.37 µM.

For the compound `Cc1c(C(=O)Nc2cccc3ccccc23)cccc1[N+](=O)[O-]` [2-methyl-N-(naphthalen-1-yl)-3-nitrobenzamide], the IC50 in test [1] was 0.08 µM; in test [2] it was 100 µM; in test [3], 180 µM; in test [4], 0.48 µM.

Regarding `COc1ccccc1NC(=O)Nc1cccc2ccccc12` [3-(2-methoxyphenyl)-1-naphthalen-1-ylurea], the IC50 in test [1] is 0.23 µM; in test [2] it was 112 µM; in test [3], 140 µM; in test [4], 0.24 µM.

`O=C(Nc1ccc(Cl)cc1)Nc1cccc2cccnc12` [3-(4-chlorophenyl)-1-quinolin-8-ylurea]: the IC50 is 0.78 µM in test [1], 116 µM in test [2], > 400 µM in test [3] and 2 µM in test [4].

On to `Cc1c(C(=O)Nc2cc(Cl)cc(Cl)c2)cccc1[N+](=O)[O-]` [Asinex compound no. 6], for which the IC50 in test [1] was determined as 0.016 µM; in test [2] it was 200 µM; in test [3], 130 µM; in test [4] it was 0.4 µM.

As to `Cc1cc(Br)ccc1NC(=O)c1ccc2ccccc2c1` [ChemBridge compound no. 2], the IC50 amounted to 0.05 µM in test [1], 210 µM in test [2], 570 µM in test [3] and 0.05 µM in test [4].

With `O=C(Nc1ccc(Cl)cc1Cl)c1ccc2ccccc2c1` [N-(2,4-dichlorophenyl)naphthalene-2-carboxamide], the IC50 in test [1] was 0.05 µM; in test [2], > 50 µM; in test [3] it was > 50 µM; in test [4], 0.08 µM.

Consider `O=C(Nc1ccccc1F)c1ccc2ccccc2c1` [N-(2-fluorophenyl)naphthalene-2-carboxamide], for which the IC50 in test [1] was found to be 0.47 µM; in test [2], 34 µM; in test [3] it was 210 µM; in test [4], 0.3 µM.

With `Cc1c(C(=O)Nc2ccc(Cl)c(Cl)c2)cccc1[N+](=O)[O-]` [N-(3,4-dichlorophenyl)-2-methyl-3-nitrobenzamide], the IC50 in test [1] came out at 0.08 µM; in test [2], 72 µM; in test [3] it was 60 µM; in test [4], 2.8 µM.

As to `Cc1c(C(=O)Nc2ccc(F)c(F)c2)cccc1[N+](=O)[O-]` [N-(3,4-difluorophenyl)-2-methyl-3-nitrobenzamide], the IC50 was determined as 0.26 µM in test [1], 200 µM in test [2], 250 µM in test [3] and 0.82 µM in test [4].

Consider `Cc1c(C(=O)Nc2cccc(Br)c2)cccc1[N+](=O)[O-]` [N-(3-bromophenyl)-2-methyl-3-nitrobenzamide], for which the IC50 in test [1] worked out at 0.06 µM; in test [2] it was 105 µM; in test [3], 140 µM; in test [4], 1.2 µM.

Consider `Cc1c(C(=O)Nc2ccc(F)c(Cl)c2)cccc1[N+](=O)[O-]` [N-(3-chloro-4-fluorophenyl)-2-methyl-3-nitrobenzamide], for which the IC50 came out at 0.1 µM in test [1], 116 µM in test [2], 130 µM in test [3] and 0.5 µM in test [4].
